Assays:
[1] = system: PARP in HL 60 human leukemia cells; assay: Western blot of PARP cleavage in HL60 cells; type: cell-based
Experimental: (§1) Control cells, as well as cells treated with cucurbitacin B or cucurbitacin D, were harvested and collected by centrifugation. Whole cell extracts were then prepared by lysing the cells using 4% sodium dodecyl sulfate (SDS) gel sample buffer. Cell extracts were boiled for 10 min and chilled on ice, subjected to 12% SDS-polyacrylamide gel electrophoresis, and transferred to a PVDF membrane. Each membrane was cut into to two pieces with one piece incubated at 4^˜ overnight with antibodies against cell cycle signaling proteins, such as ERK, phosphorlated-ERK, p38, phosphorlated-p38, Cyclin E, Retinoblastoma, phosphalated-Retinoblastoma and c-myc, and apoptotic protein (PARP). β-actin was used as a control for protein loading. All antibodies were obtained from Cell signaling Technologies (USA). Then membranes were incubated at 37^˜ for 1 h with secondary antibody conjugated with peroxidase, and the signal was detected using chemiluminescence detection reagent. The relative protein level was calculated as the ratio of the optical density of the protein of interest to that of β-actin.

[2] = system: human cancer cell lines (18 selected from the 59-NCI panel); assay: Annexin V-FITC/propidium iodine flow cytometric apoptosis assay, 18 selected cell lines; type: cell-based; details: 48 hours; for cell lines in which apoptosis was induced: GI50, 1/2 GI50 and 1/4 GI50 of particular cell line; for dose dependence of apoptosis induction (in words): three concentrations
Experimental: Human cancer cell lines from the 59-NCI Cancer Cell Line Panel including leukemia, melanoma and cancers of breast, brain, colon, lung, ovary, prostate and kidney were purchased from the National Institute of Cancer. […] They were treated with cucurbitacin B and cucurbitacin D at three different concentrations to elucidate their ability to induce any changes in cell cycle.
Cancer cell lines were maintained in RPMI 1640 supplemented with 5% Fetal Bovine Serum, 2 mM L-glutamine and 1% Penicillin/Streptomycin at 37° C. with 5% CO2. All chemicals were purchased from Sigma unless specified otherwise.
Cells were inoculated into tissue culture flask at cell concentrations from 50000 to 400,000 cells/ml according to the NCl guideline. The cells were incubated at 37° C. with 5% CO2 for 24 hours. Cucurbitacin B and cucurbitacin D were added to the cells of final concentrations ranging from 6 to 350 nM (GI50, ½ GI50 and ¼ GI50 of particular cell line) for 48 hours at 37° C. with 5% CO2. Cells ([…]) were then harvested and stained with 5 μl Annexin V-FITC and 10 μl propidium iodine (Becton Dickinson, Calif., USA) for 15 minutes at room temperature. Ten thousands events were collected by the FACScaliber and the percentage of different cell populations were analyzed by the CellQuest™ software (Becton Dickinson).

[3] = system: phosphorylated-ERK, cyclin E, phosphorylated-Rb, c-myc in HL60 cells; assay: Western blot of MAPK / cell cycle signaling proteins in HL60 cells; type: cell-based, human
Experimental: as §1

[4] = system: 59 human cancer cell lines; assay: Sulforhodamine B (SRB) growth inhibition assay, 59-NCI Cancer Cell Line Panel; type: cell-based; details: 0.488 to 4000 nM, 48 hours
From the text: (§2) Human cancer cell lines from the 59-NCl Cancer Cell Line Panel including leukemia, melanoma and cancers of breast, brain, colon, lung, ovary, prostate and kidney, were purchased from the National Institute of Cancer (USA). The growth inhibition (GI50) of these cell lines treated with cucurbitacin B and cucurbitacin D in various concentrations was investigated.
(§3) 59 human cancer cell lines were maintained in RPMI 1640 (Invitrogen Life Technologies, Calif., USA) supplemented with 5% Fetal Bovine Serum, 2 mM L-glutamine and 1% Penicillin/Streptomycin (Invitrogen Life Technologies) at 37° C. with 5% CO2. All chemicals were purchased from Sigma (St. Louis, Mo., USA) unless specified otherwise.
(§4) Sulforhodamine B (SRB) assay was applied to determine the cytostatic effect of cucurbitacin B and cucurbitacin D. SRB is a dye which binds to cellular proteins and will be dissolved in base. The biomass of total protein can be measured at 520 nm using a plate reader.
(§5) Cells were inoculated into 96-well microtiter plates including “Time zero” (Tz) plates in 100 μl at cell concentrations from 5000 to 40,000 cells per well according to NCI guideline. The cells were incubated at 37° C. with 5% CO2 for 24 hours. […] Bound SRB was solubilized with 100-200 ul per well of 10 mM trizma base and absorbance was measured at a wavelength of 520 nm. The percentage of growth inhibition was calculated as follows: […]

[5] = system: HL60 (TB) leukemia cell line; assay: Cell cycle analysis by PI flow cytometry, HL60 (TB); type: cell-based, human; details: 48 hours
[6] = system: prostate cancer cell lines; assay: SRB growth inhibition assay, prostate cancer group; type: cell-based, human; details: most sensitive type to cucurbitacin B, 48 hours
From the text: as §2, §3, §4, §5

[7] = system: human cancer cell lines (18 selected from the 59-NCI panel); assay: Cell cycle analysis by PI flow cytometry, 18 selected cell lines; type: cell-based; details: GI50, 1/2 GI50 and 1/4 GI50 of particular cell line, 48 hours
melanoma cell lines = assay: SRB growth inhibition assay, melanoma group; type: cell-based, human; details: most sensitive type to cucurbitacin D, 48 hours
From the text: as §2, §3, §4, §5

SF-295 CNS cell line = assay: Cell cycle analysis by PI flow cytometry, SF-295; type: cell-based, human; details: SF-295, 48 hours

| SMILES | PARP (apoptosis marker) in western blot (in words) [1] | cell lines in which apoptosis was induced [2] | dose dependence of apoptosis induction (in words) [2] | ERK (in words) [3] | c-myc (in words) [3] | cyclin E (in words) [3] | retinoblastoma phosphorylation (in words) [3] | growth inhibition of 59 cancer cell lines (in words) [4] | effect on cell cycle (in words) [5] | GI50 [6] [nM] | cell lines arrested in G2/M [7] | GI50 (melanoma cell lines) [nM] | effect on cell cycle (in words) (SF-295 CNS cell line) |
| --- | --- | --- | --- | --- | --- | --- | --- | --- | --- | --- | --- | --- | --- |
| CC(=O)OC(C)(C)/C=C/C(=O)[C@](C)(O)[C@H]1[C@H](O)C[C@@]2(C)[C@@H]3CC=C4[C@H](C[C@H](O)C(=O)C4(C)C)[C@]3(C)C(=O)C[C@]12C [cucurbitacin B] | cleavage of PARP | 9 out of 18 | induced apoptosis in a dose-dependent manner | ERK activation | down-regulation of c-myc | cyclin E down-regulation | inhibition of retinoblastoma's phosphorylation | inhibited the growth of 59 cancer cell lines dose-dependently | G2/M arrest and endoreduplication | 17 | 6 out of 18 | – | – |
| CC(C)(O)/C=C/C(=O)[C@](C)(O)[C@H]1[C@H](O)C[C@@]2(C)[C@@H]3CC=C4[C@@H](C[C@H](O)C(=O)C4(C)C)[C@]3(C)C(=O)C[C@]12C [cucurbitacin D] | cleavage of PARP | 11 out of 18 | induced apoptosis in a dose-dependent manner | ERK activation | down-regulation of c-myc | cyclin E down-regulation | inhibition of retinoblastoma's phosphorylation | inhibited the growth of 59 cancer cell lines dose-dependently | – | – | 9 out of 18 | 60 | G2/M arrest and endoreduplication |
